Values quoted from earlier work as cited in publication PMC4435776 (Journal of cardiovascular translational research, 2014).

System: Mouse ESC
Settings: compared with the effect of CsA; ref [56]

11R-VIVIT
effect on stem cells of other calcineurin/NFAT inhibitors: absence of a significant effect

C=CC[C@@H]1/C=C(\C)C[C@H](C)C[C@H](OC)[C@H]2O[C@@](O)(C(=O)C(=O)N3CCCC[C@H]3C(=O)O[C@H](/C(C)=C/[C@@H]3CC[C@@H](O)[C@H](OC)C3)[C@H](C)[C@@H](O)CC1=O)[C@H](C)C[C@@H]2OC [tacrolimus]
effect on stem cells of other calcineurin/NFAT inhibitors: absence of a significant effect
